From US10729684B2, “Alkynyl dihydroquinoline sulfonamide compounds” (AMGEN INC., priority 2015, dated 2020) come the findings set out here.

What is called IC50 is the concentration that inhibits the measured activity by half.

For one data set, the target named is hNav1.7 (Homo sapiens (Human), UniProt Q15858). As to the kind of experiment: Nav 1.7 IWQ in vitro assay (IonWorks Quattro population patch-clamp). Conditions: HEK 293 cells stably transfected with Nav 1.7. It counts as cell-based. As to the method:
Nav 1.7 or Nav 1.5 IWQ In Vitro Assay
HEK 293 Cells stably transfected with either Nav 1.7 or Nav 1.5 were recorded in population patch-clamp mode with the IonWorks® Quattro automated electrophysiology system in accordance with the manufacturer's specifications (Molecular Devices, LLC, Sunnyvale, Calif.). Sodium channel currents were measured in response to a train of depolarizations that induced successively greater inactivation.
Cells were held at −110 mV for three seconds (Nav 1.7) or half a second (Nav 1.5) from a holding voltage of −15 mV, then put through a series of 26 pulses of 150 msec duration to −20 mV at a frequency of 5 Hz. Cells were then left unclamped for a period of 3 to 8 minutes while a single concentration of test compound was added. Cells were then reclamped and put through the same voltage protocol. Current at the end of the 26th pulse to −20 mV was subtracted from the peak current evoked by the 26th pulse to −20 mV to correct for leak current. Percent block was calculated for each concentration in duplicate, and IC50 curves were fitted to percent block as a function of concentration.

The next data set concerns the target human PXR (Homo sapiens (Human), UniProt O75469). As to the kind of experiment: human PXR @ 2 uM POC.
The nature of the next data set: RLM in vitro. Conditions: b278 calls it HLM data in vitro.
Another data set concerns the target human Nav1.7 (Homo sapiens (Human), UniProt Q15858). The data set can be described thus: Nav 1.7 in vitro PX assay (PatchXpress whole cell voltage clamp). The data set is classed as cell-based. Conditions: HEK 293 cells stably transfected with human Nav1.7, partially inactivated state, read-out: hNav1.7 PX IC50. As to the method:
Nav 1.7 In Vitro PX Assay
HEK 293 cells stably transfected with human Nav1.7 were recorded in whole cell voltage clamp mode with the PatchXpress automated electrophysiology system (Molecular Devices, LLC, Sunnyvale, Calif.). Compound effects were measured on a partially inactivated state of the sodium channel. Cells were clamped to a holding potential yielding 20 to 50% inactivation. To elicit sodium current, channels were activated by pulsing to −10 mV for 20 msec. This voltage protocol was repeated at a rate of 0.1 Hz throughout the experiment. A single concentration of test compound was applied to cells for a duration of 3 minutes. Peak sodium current was measured at the end of the compound addition period to determine percent inhibition. Three to five cells were tested per concentration, and IC50 curves were fitted to percent inhibition as a function of concentration.

Chain of hNav1.7 (Q15858 whole entry): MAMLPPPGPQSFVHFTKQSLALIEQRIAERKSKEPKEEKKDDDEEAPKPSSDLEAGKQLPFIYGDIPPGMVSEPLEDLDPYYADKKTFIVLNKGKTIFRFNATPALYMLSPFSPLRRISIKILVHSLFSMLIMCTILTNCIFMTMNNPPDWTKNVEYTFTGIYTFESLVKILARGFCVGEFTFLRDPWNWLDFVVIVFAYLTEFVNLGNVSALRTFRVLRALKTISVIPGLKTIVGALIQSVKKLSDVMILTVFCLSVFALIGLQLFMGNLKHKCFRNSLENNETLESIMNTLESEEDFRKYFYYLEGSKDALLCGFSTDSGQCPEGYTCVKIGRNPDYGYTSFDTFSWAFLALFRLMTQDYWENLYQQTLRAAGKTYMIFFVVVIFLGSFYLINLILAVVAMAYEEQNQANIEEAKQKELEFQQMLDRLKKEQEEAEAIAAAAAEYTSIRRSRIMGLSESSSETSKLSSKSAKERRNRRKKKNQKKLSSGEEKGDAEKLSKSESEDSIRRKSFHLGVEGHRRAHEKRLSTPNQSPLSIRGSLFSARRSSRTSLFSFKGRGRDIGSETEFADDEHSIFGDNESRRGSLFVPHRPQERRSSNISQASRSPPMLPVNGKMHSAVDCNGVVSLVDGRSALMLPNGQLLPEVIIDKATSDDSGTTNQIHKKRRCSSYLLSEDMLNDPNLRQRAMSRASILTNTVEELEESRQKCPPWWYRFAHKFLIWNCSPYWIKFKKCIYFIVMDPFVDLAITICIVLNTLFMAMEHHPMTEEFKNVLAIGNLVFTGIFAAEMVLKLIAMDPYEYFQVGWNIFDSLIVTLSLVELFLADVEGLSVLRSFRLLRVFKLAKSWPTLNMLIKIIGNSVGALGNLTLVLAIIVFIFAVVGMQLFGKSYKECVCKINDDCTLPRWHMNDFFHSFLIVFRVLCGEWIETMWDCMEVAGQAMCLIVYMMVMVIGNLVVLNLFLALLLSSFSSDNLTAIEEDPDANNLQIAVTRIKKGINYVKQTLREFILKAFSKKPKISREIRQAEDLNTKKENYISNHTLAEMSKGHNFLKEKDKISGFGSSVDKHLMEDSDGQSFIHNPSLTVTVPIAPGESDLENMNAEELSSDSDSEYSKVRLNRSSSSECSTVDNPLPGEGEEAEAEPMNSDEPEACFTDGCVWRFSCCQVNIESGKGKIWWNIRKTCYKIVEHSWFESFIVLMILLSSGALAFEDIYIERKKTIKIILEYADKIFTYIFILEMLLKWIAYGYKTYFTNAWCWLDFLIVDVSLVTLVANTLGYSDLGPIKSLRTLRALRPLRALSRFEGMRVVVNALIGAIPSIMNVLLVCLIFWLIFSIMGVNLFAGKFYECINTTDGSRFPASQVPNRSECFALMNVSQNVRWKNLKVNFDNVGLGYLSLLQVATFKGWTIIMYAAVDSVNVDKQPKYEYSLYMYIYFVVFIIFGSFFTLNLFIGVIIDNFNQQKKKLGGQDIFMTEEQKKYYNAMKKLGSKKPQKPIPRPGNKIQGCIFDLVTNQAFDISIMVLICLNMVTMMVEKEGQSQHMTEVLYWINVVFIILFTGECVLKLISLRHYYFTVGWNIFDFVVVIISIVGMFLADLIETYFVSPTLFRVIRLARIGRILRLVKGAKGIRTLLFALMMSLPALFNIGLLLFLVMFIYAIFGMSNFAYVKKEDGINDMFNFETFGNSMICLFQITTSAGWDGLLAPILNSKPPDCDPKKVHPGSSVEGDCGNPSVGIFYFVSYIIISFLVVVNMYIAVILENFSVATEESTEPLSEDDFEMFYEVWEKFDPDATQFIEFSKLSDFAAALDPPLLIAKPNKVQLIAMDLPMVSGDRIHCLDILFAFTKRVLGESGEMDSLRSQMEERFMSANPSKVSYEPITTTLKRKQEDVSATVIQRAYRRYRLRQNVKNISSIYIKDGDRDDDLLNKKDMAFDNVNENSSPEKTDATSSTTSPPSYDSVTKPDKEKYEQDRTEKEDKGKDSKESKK
Chain of human PXR (O75469 whole entry): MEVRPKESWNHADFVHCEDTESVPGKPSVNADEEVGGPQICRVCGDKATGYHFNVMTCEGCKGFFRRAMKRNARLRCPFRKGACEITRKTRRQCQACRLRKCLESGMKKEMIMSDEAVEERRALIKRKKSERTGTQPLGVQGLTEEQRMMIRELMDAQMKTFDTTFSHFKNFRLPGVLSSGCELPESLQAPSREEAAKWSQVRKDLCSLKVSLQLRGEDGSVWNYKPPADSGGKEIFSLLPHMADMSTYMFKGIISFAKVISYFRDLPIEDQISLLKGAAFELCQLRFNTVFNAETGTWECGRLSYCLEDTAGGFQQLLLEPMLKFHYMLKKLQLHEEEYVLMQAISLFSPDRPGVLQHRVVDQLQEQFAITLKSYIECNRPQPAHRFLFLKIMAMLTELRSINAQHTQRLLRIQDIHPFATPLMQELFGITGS
Chain of human Nav1.7 (Q15858 whole entry): as the sequence (Q15858 whole entry) above

For the molecule `COc1cc(C#C[C@@H]2C[C@@H]2C(F)(F)F)c(F)cc1-n1c(=O)ccc2cc(S(=O)(=O)Nc3ccon3)ccc21` (single isomer, unassigned) [Example 4A], on hNav1.7, the half-inhibitory concentration (IC50) is 6.8 nM. In addition, on human PXR, the “human PXR @ 2 uM POCS” value was found to be 23.19%. Besides, the RLM in vitro in the data set “RLM in vitro” was less than 14.0 µL/min/mg.
Turning to `COc1cc(C#CC2CCCC2)c(Cl)cc1-n1c(=O)ccc2cc(S(=O)(=O)Nc3ccon3)ccc21` (atropisomer, axis not shown; (P)) [Example 6, (P)-1-(5-chloro-4-(cyclopentylethynyl)-2-methoxyphenyl)-N-(isoxazol-3-yl)-2-oxo-1,2-dihydroquinoline-6-sulfonamide], the “human PXR @ 2 uM POCS” value at human PXR is listed as −3.96%. Further, the RLM in vitro in “RLM in vitro” turned out to be 58 µL/min/mg.
`COc1cc(C#CC2CCCC2)c(F)cc1-n1c(=O)ccc2cc(S(=O)(=O)Nc3cccnn3)ccc21` [Example 9]: the IC50 was found to be 8.95 nM at hNav1.7 and 19.3 nM at human Nav1.7. For the same molecule, the “human PXR @ 2 uM POCS” value on human PXR came out at 11.80%. Further, the RLM in vitro in the data set “RLM in vitro” came out at 32.2 µL/min/mg.
Consider `COc1cc(C#CC2CCCC2)ccc1-n1c(=O)ccc2cc(S(=O)(=O)Nc3ccon3)ccc21` (atropisomer, axis not shown; (P)) [Example 3, (P)-1-(4-(cyclopentylethynyl)-2-methoxyphenyl)-N-(isoxazol-3-yl)-2-oxo-1,2-dihydroquinoline-6-sulfonamide], for which the IC50 against hNav1.7 was 7.5 nM; on human Nav1.7, 49.7 nM. At human PXR, the “human PXR @ 2 uM POCS” value is −1.44%. For the same molecule, in “RLM in vitro”, the RLM in vitro was 39 µL/min/mg.
Take `COc1cc(C#CC2CCCC2)c(F)cc1-n1c(=O)ccc2cc(S(=O)(=O)Nc3ccon3)ccc21` (atropisomer, axis not shown; (P)) [Example 10, (P)-1-(4-(cyclopentylethynyl)-5-fluoro-2-methoxyphenyl)-N-3-isoxazolyl-2-oxo-1,2-dihydro-6-quinoline Sulfonamide]: on human PXR, the “human PXR @ 2 uM POCS” value came out at 2.94%. The same molecule showed an RLM in vitro in “RLM in vitro” of 39.8 µL/min/mg.
On the same counts, the results for `COc1cc(C#C[C@H]2C[C@@H]2C(F)(F)F)c(F)cc1-n1c(=O)ccc2cc(S(=O)(=O)Nc3ccon3)ccc21` (atropisomer, axis not shown; (P)) [Example 4, (P)-1-(5-fluoro-2-methoxy-4-((2-(trifluoromethyl)cyclopropyl)ethynyl)phenyl)-N-(isoxazol-3-yl)-2-oxo-1,2-dihydroquinoline-6-sulfonamide] are 13.54% and less than 14.0 µL/min/mg.
`COc1cc(C#CC2CCC(F)(F)CC2)c(F)cc1-n1c(=O)ccc2cc(S(=O)(=O)Nc3ccon3)ccc21` (atropisomer, axis not shown; (P)) [Example 1, (P)-1-(4-((4,4-difluorocyclohexyl)ethynyl)-5-fluoro-2-methoxyphenyl)-N-(isoxazol-3-yl)-2-oxo-1,2-dihydroquinoline-6-sulfonamide] showed an IC50 against hNav1.7 of 3.3 nM. The “human PXR @ 2 uM POCS” value on human PXR is given as 2.36%. In the data set “RLM in vitro”, this molecule gave an RLM in vitro of less than 14.0 µL/min/mg.
Regarding `COc1cc(C#CC2CCCC(F)(F)C2)c(F)cc1-n1c(=O)ccc2cc(S(=O)(=O)Nc3ccon3)ccc21` (racemic) [Example 7, (P) 1-(4-((3,3-difluorocyclohexyl)ethynyl)-5-fluoro-2-methoxyphenyl)-N-(isoxazol-3-yl)-2-oxo-1,2-dihydroquinoline-6-sulfonamide], at hNav1.7, half-maximal inhibition (IC50) was put at 7.8 nM.
At hNav1.7, `COc1cc(C#C[C@H]2C[C@@H]2C(F)(F)F)c(F)cc1-n1c(=O)ccc2cc(S(=O)(=O)Nc3ccon3)ccc21` (stereo in doubt) [Example 4, (P)-1-(5-fluoro-2-methoxy-4-((2-(trifluoromethyl)cyclopropyl)ethynyl)phenyl)-N-(isoxazol-3-yl)-2-oxo-1,2-dihydroquinoline-6-sulfonamide] registered an IC50 of 7 nM.
On to `COc1cc(C#CC2(C(F)(F)F)CC2)c(F)cc1-n1c(=O)ccc2cc(S(=O)(=O)Nc3ccon3)ccc21` (atropisomer, axis not shown; (P)) [Example 5, (P)-1-(5-fluoro-2-methoxy-4-((1-(trifluoromethyl)cyclopropyl)ethynyl)phenyl)-N-(isoxazol-3-yl)-2-oxo-1,2-dihydroquinoline-6-sulfonamide], for which the “human PXR @ 2 uM POCS” value at human PXR was determined as 1.73%. This molecule also registered an RLM in vitro in the data set “RLM in vitro” of less than 14.0 µL/min/mg.
In turn, `COc1cc(C#CC(C)(C)C(F)(F)F)c(F)cc1-n1c(=O)ccc2cc(S(=O)(=O)Nc3ccon3)ccc21` (atropisomer, axis not shown; (P)) [Example 2, (P)-1-(5-fluoro-2-methoxy-4-(4,4,4-trifluoro-3,3-dimethylbut-1-yn-1-yl)phenyl)-N-(isoxazol-3-yl)-2-oxo-1,2-dihydroquinoline-6-sulfonamide] registered an IC50 on hNav1.7 of 1.2 nM. Moreover, the “human PXR @ 2 uM POCS” value on human PXR came to 1.38%. The RLM in vitro in the data set “RLM in vitro” was less than 14.0 µL/min/mg.
`COc1cc(C#C[C@@H]2C[C@H]2C(F)(F)F)c(F)cc1-n1c(=O)ccc2cc(S(=O)(=O)Nc3ccon3)ccc21` (stereo in doubt) [Example 4B, 1-(5-fluoro-2-methoxy-4-(((1R,2R)-2-(trifluoromethyl)cyclopropyl)ethynyl)phenyl)-N-3-isoxazolyl-2-oxo-1,2-dihydro-6-quinolinesulfonamide]: the IC50 on hNav1.7 turned out to be 5.5 nM. Further, the “human PXR @ 2 uM POCS” value at human PXR is recorded as −3.81%. This molecule registered an RLM in vitro in the data set “RLM in vitro” of less than 14.0 µL/min/mg.
As for `COc1cc(C#CC2CCCC(F)(F)C2)c(F)cc1-n1c(=O)ccc2cc(S(=O)(=O)Nc3ccon3)ccc21` (atropisomer, axis not shown; (P)) [Example 7, (P) 1-(4-((3,3-difluorocyclohexyl)ethynyl)-5-fluoro-2-methoxyphenyl)-N-(isoxazol-3-yl)-2-oxo-1,2-dihydroquinoline-6-sulfonamide], at human PXR, the “human PXR @ 2 uM POCS” value was −0.78%. In addition, the RLM in vitro in “RLM in vitro” was less than 14.0 µL/min/mg.
